In patent US9085576B2 (AMGEN INC., priority 2013, dated 2015) one finds IC50 data, which are given here for 23 compounds.

Each structure is given as a SMILES string.

Assay [1] deals with Cathepsin D (Cat D) (Homo sapiens (Human), UniProt P07339). As to the kind of experiment: In vitro enzymatic Cathepsin D (Cat D) FRET assay. The class given is biochemical. Particulars: read-out: CatD IC50.
Assay [2] deals with BACE (Homo sapiens (Human), UniProt P56817). Kind of assay: In vitro BACE cell-based assay (Aβ40 in conditioned medium, sandwich ELISA). Background: An ELISA detects its analyte on a solid surface through an enzyme-linked reagent.
Assay [3] deals with Beta Secretase enzyme (BACE) (Homo sapiens (Human), UniProt P56817). As to the kind of experiment: In vitro enzymatic BACE FRET assay. The class given is biochemical. Particulars: read-out: BACE1 Enzyme assay IC50.
Beta Secretase enzyme (BACE), sequence (P56817 46-501): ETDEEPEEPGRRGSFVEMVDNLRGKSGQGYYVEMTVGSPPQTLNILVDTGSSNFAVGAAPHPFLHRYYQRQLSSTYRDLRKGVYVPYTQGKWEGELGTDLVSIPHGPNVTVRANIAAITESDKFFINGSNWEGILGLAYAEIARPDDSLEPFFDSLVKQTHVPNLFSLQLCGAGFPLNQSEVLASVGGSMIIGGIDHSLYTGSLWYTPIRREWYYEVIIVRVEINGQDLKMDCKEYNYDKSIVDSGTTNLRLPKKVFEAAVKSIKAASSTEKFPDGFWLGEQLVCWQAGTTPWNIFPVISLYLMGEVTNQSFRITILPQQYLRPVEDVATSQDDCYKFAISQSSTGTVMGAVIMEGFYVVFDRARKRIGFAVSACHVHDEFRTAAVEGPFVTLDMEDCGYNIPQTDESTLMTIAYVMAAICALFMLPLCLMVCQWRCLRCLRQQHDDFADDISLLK

Cathepsin D (Cat D), sequence (P07339 65-412, species assumed): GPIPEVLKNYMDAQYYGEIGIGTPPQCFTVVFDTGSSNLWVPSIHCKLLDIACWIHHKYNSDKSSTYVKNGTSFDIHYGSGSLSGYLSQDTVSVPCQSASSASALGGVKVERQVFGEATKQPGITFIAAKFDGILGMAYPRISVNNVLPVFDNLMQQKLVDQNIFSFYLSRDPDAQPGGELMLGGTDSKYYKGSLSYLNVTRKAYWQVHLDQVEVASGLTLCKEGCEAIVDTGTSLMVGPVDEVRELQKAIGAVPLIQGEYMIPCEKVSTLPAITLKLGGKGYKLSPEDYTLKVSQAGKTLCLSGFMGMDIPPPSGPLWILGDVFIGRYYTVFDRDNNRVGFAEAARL
BACE, sequence (P56817 46-501, species assumed): as the sequence (P56817 46-501) above

A word on the IC50: it is the concentration that inhibits the measured activity by half. For the compound `COc1cc(F)cnc1C(=O)Nc1ccc(F)c([C@@]2(C(F)F)N=C(N)O[C@@H]3C[C@@H]32)c1` [Example 307, N-(3-((1R,5S,6R)-3-amino-5-(difluoromethyl)-2-oxa-4-azabicyclo[4.1.0]hept-3-en-5-yl)-4-fluorophenyl)-5-fluoro-3-methoxypicolinamide], the values for the IC50 in assay [1], in assay [2] and in assay [3] were over 400 µM, 0.139 µM and 0.413 µM, respectively.

Consider `NC1=N[C@@](c2cc(NC(=O)c3ncc(Cl)cc3CF)ccc2F)(C(F)F)[C@H]2C[C@H]2O1` [Example 308, N-(3-((1R,5S,6R)-3-amino-5-(difluoromethyl)-2-oxa-4-azabicyclo[4.1.0]hept-3-en-5-yl)-4-fluorophenyl)-5-chloro-3-(fluoromethyl) picolinamide], for which the results for the IC50 in assay [1], in assay [2] and in assay [3] were 186 µM, 0.0321 µM and 0.0177 µM, respectively.

In the case of `Cc1cc(C#N)cnc1C(=O)Nc1cc(F)c(C)c([C@@]2(C(F)F)N=C(N)O[C@@H]3C[C@@H]32)c1` [Example 310, N-(3-((1R,5S,6R)-3-amino-5-(difluoromethyl)-2-oxa-4-azabicyclo[4.1.0]hept-3-en-5-yl)-5-fluoro-4-methylphenyl)-5-cyano-3-methylpicolinamide], the 50% inhibitory concentration (IC50) in assay [1] was 1770 µM; in assay [2], over 15.6 µM; in assay [3] it was over 40 µM.

For `Cc1cc(C#N)cnc1C(=O)Nc1cc(F)c(C)c([C@]2(C(F)F)N=C(N)O[C@H]3C[C@H]32)c1` [Example 311, N-(3-((1S,5R,6S)-3-amino-5-(difluoromethyl)-2-oxa-4-azabicyclo[4.1.0]hept-3-en-5-yl)-5-fluoro-4-methylphenyl)-5-cyano-3-methylpicolinamide], the IC50 in assay [1] turned out to be 294 µM; in assay [2] it was 0.0174 µM; in assay [3], 0.0466 µM.

Take `CC#Cc1ccc(C(=O)Nc2ccc(F)c([C@@]3(C(F)F)N=C(N)O[C@@H]4C[C@@H]43)c2)nc1` [Example 314, N-(3-((1R,5S,6R)-3-amino-5-(difluoromethyl)-2-oxa-4-azabicyclo[4.1.0]hept-3-en-5-yl)-4-fluorophenyl)-5-(prop-1-yn-1-yl)picolinamide]: the IC50 was 421 µM in assay [1], 0.0891 µM in assay [2] and 0.0467 µM in assay [3].

As to `Cc1nc(OCC(F)(F)F)cnc1C(=O)Nc1cc(F)c(Cl)c([C@@]2(CF)N=C(N)O[C@@H]3C[C@@H]32)c1` [Example 315, N-(3-((1R,5S,6R)-3-amino-5-(fluoromethyl)-2-oxa-4-azabicyclo[4.1.0]hept-3-en-5-yl)-4-chloro-5-fluorophenyl)-3-methyl-5-(2,2,2-trifluoroethoxy)pyrazine-2-carboxamide], the IC50 in assay [1] was 556 µM; in assay [2], 0.0927 µM; in assay [3] it was 0.0936 µM.

With `Cc1nc(OCC(F)(F)F)cnc1C(=O)Nc1cc(F)c(Cl)c([C@]2(CF)N=C(N)O[C@H]3C[C@H]32)c1` [Example 316, N-(3-((1S,5R,6S)-3-amino-5-(fluoromethyl)-2-oxa-4-azabicyclo[4.1.0]hept-3-en-5-yl)-4-chloro-5-fluorophenyl)-3-methyl-5-(2,2,2-trifluoroethoxy)pyrazine-2-carboxamide], the IC50 in assay [1] was 1080 µM; in assay [2], over 15.6 µM; in assay [3], over 40 µM.

Consider `C#CCOc1cnc(C(=O)Nc2cc(F)c(Cl)c([C@@]3(CF)N=C(N)O[C@@H]4C[C@@H]43)c2)cn1` [Example 317, N-(3-((1R,5S,6R)-3-amino-5-(fluoromethyl)-2-oxa-4-azabicyclo[4.1.0]hept-3-en-5-yl)-4-chloro-5-fluorophenyl)-5-(prop-2-yn-1-yloxy)pyrazine-2-carboxamide], for which the IC50 in assay [1] stood at 41 µM; in assay [2], 0.0014 µM; in assay [3], 0.0028 µM.

In the case of `C#CCOc1cnc(C(=O)Nc2cc(F)c(Cl)c([C@]3(CF)N=C(N)O[C@H]4C[C@H]43)c2)cn1` [Example 318], the IC50 came out at 370 µM in assay [1], 1.49 µM in assay [2] and 4.07 µM in assay [3].

For the compound `COc1cnc(C(=O)Nc2ccc(F)c([C@]3(C)N=C(N)O[C@H]4C[C@H]43)n2)cn1` [Example 323, N-(6-((1S,5R,6S)-3-amino-5-methyl-2-oxa-4-azabicyclo[4.1.0]hept-3-en-5-yl)-5-fluoropyridin-2-yl)-5-methoxypyrazine-2-carboxamide], the results for the IC50 in assay [1], in assay [2] and in assay [3] were over 400 µM, over 15.6 µM and over 40 µM, respectively.

On to `C[C@]1(c2nc(NC(=O)c3ccc(C#N)cn3)ccc2F)N=C(N)O[C@@H]2C[C@@H]21` [Example 324, N-(6-((1R,5S,6R)-3-amino-5-methyl-2-oxa-4-azabicyclo[4.1.0]hept-3-en-5-yl)-5-fluoropyridin-2-yl)-5-cyanopicolinamide], for which the IC50 in assay [1] is 182 µM; in assay [2] it was 0.0283 µM; in assay [3], 0.149 µM.

Turning to `C[C@]1(c2nc(NC(=O)c3ccc(Cl)cn3)ccc2F)N=C(N)O[C@@H]2C[C@@H]21` [Example 326, N-(6-((1R,5S,6R)-3-amino-5-methyl-2-oxa-4-azabicyclo[4.1.0]hept-3-en-5-yl)-5-fluoropyridin-2-yl)-5-chloropicolinamide], the IC50 is 279 µM in assay [1], 0.0323 µM in assay [2] and 0.242 µM in assay [3].

Take `C[C@@]1(c2nc(NC(=O)c3ccc(Cl)cn3)ccc2F)N=C(N)O[C@H]2C[C@H]21` [Example 327, N-(6-((1S,5R,6S)-3-amino-5-methyl-2-oxa-4-azabicyclo[4.1.0]hept-3-en-5-yl)-5-fluoropyridin-2-yl)-5-chloropicolinamide]: the IC50 came out at 1320 µM in assay [1], 0.703 µM in assay [2] and 2.14 µM in assay [3].

Take `C[C@]1(c2nc(NC(=O)c3ncc(Cl)cc3Cl)ccc2F)N=C(N)O[C@@H]2C[C@@H]21` [Example 328, N-(6-((1R,5S,6R)-3-amino-5-methyl-2-oxa-4-azabicyclo[4.1.0]hept-3-en-5-yl)-5-fluoropyridin-2-yl)-3,5-dichloropicolinamide]: the results for the IC50 in assay [1], in assay [2] and in assay [3] were 512 µM, 0.0116 µM and 0.103 µM, respectively.

Consider `C[C@@]1(c2nc(NC(=O)c3ncc(Cl)cc3Cl)ccc2F)N=C(N)O[C@H]2C[C@H]21` [Example 329, N-(6-((1S,5R,6S)-3-amino-5-methyl-2-oxa-4-azabicyclo[4.1.0]hept-3-en-5-yl)-5-fluoropyridin-2-yl)-3,5-dichloropicolinamide], for which the IC50 was 1610 µM in assay [1], 9.6 µM in assay [2] and over 40 µM in assay [3].

Take `N#Cc1ccc(C(=O)Nc2ccc(F)c([C@@]3(C(F)F)N=C(N)O[C@@H]4C[C@@H]43)n2)nc1` [Example 331, N-(6-((1R,5S,6R)-3-amino-5-(difluoromethyl)-2-oxa-4-azabicyclo[4.1.0]hept-3-en-5-yl)-5-fluoropyridin-2-yl)-5-cyanopicolinamide]: the IC50 is 1510 µM in assay [1], over 15.6 µM in assay [2] and 26.7 µM in assay [3].

With `C[C@]1(c2cc(NC(=O)c3ccc(Cl)cn3)cnc2F)N=C(N)O[C@@H]2C[C@@H]21` [Example 334, N-(5-((1R,5S,6R)-3-amino-5-methyl-2-oxa-4-azabicyclo[4.1.0]hept-3-en-5-yl)-6-fluoropyridin-3-yl)-5-chloropicolinamide], the IC50 in assay [1] was 402 µM; in assay [2] it was 0.0089 µM; in assay [3], 0.0944 µM.

In the case of `COc1cnc(C(=O)Nc2cnc(F)c([C@]3(C)N=C(N)O[C@H]4C[C@H]43)c2)cn1` [Example 336, N-(5-((1(R,S),5(S,R),6(R,S))-3-amino-5-methyl-2-oxa-4-azabicyclo[4.1.0]hept-3-en-5-yl)-6-fluoropyridin-3-yl)-5-methoxypyrazine-2-carboxamide], the IC50 in assay [1] was over 400 µM; in assay [2], 0.0416 µM; in assay [3] it was 0.435 µM.

On to `COc1cnc2c(Nc3ccc(F)c([C@@]4(C)N=C(N)O[C@@H]5C[C@@H]54)c3)nccc2c1` [Example 340, (1R,5S,6R)-5-(2-fluoro-5-((3-methoxy-1,7-naphthyridin-8-yl)amino)phenyl)-5-methyl-2-oxa-4-azabicyclo[4.1.0]hept-3-en-3-amine], for which the IC50 in assay [1] was over 400 µM; in assay [2], 0.0796 µM; in assay [3], 0.506 µM.

Turning to `NC1=N[C@](CF)(c2cc(Nc3nccc4cc(Cl)cnc34)cc(F)c2F)[C@@H]2C[C@@H]2O1` [Example 341, (1S,5S,6S)-5-(5-((3-chloro-1,7-naphthyridin-8-yl)amino)-2,3-difluorophenyl)-5-(fluoromethyl)-2-oxa-4-azabicyclo[4.1.0]hept-3-en-3-amine], the IC50 in assay [1] is 2890 µM; in assay [2], 3.41 µM; in assay [3], 3.41 µM.

Consider `NC1=N[C@](CF)(c2cc(Nc3nccc4cc(Cl)cnc34)cc(F)c2F)[C@H]2C[C@H]2O1` [Example 342, (1R,5S,6R)-5-(5-((3-chloro-1,7-naphthyridin-8-yl)amino)-2,3-difluorophenyl)-5-(fluoromethyl)-2-oxa-4-azabicyclo[4.1.0]hept-3-en-3-amine], for which the values for the IC50 in assay [1], in assay [2] and in assay [3] were 50.6 µM, 0.12 µM and 0.0598 µM, respectively.

As for `N#Cc1cnc2c(Nc3ccc(F)c([C@@]4(CF)N=C(N)O[C@@H]5C[C@@H]54)c3)ncc(F)c2c1` [Example 343, 8-((3-((1R,5S,6R)-3-amino-5-(fluoromethyl)-2-oxa-4-azabicyclo[4.1.0]hept-3-en-5-yl)-4-fluorophenyl)amino)-5-fluoro-1,7-naphthyridine-3-carbonitrile], the IC50 in assay [1] was over 44.4 µM; in assay [2], 0.0546 µM; in assay [3], 0.0949 µM.

Consider `COc1cnc2c(Nc3ccc(F)c([C@@]4(CF)N=C(N)O[C@@H]5C[C@@H]54)c3)ncc(F)c2c1` [Example 344, (1R,5S,6R)-5-(2-fluoro-5-((5-fluoro-3-methoxy-1,7-naphthyridin-8-yl)amino)phenyl)-5-(fluoromethyl)-2-oxa-4-azabicyclo[4.1.0]hept-3-en-3-amine], for which the IC50 in assay [1] is 596 µM; in assay [2], 0.0982 µM; in assay [3] it was 430 µM.
